Laboratory results: ChEMBL document CHEMBL5390272, “Discovery of a potent and selective human AC2 inhibitor based on 7-deazapurine analogues of adefovir” (Bioorg Med Chem, 2023)

How the values were obtained:
HeLa S3 = assay: Cytotoxicity against human HeLa S3 cells by CellTiter-Glo 2.0 assay; assay type: functional, cell-based
NHDF = assay: Cytotoxicity against human NHDF cells by CellTiter-Glo 2.0 assay; assay type: toxicity, cell-based
Adenylate cyclase type 2 = Adenylate cyclase type 2 (Homo sapiens, UniProt Q08462); assay: Inhibition of human adenylate cyclase 2 expressed in ACdelta 3/6 knockout HEK293 cells assessed as cyclic AMP accumulation incubated for 30 min followed by FSK stimulation by HTR-FRET assay; assay type: cell-based
Chain of Adenylate cyclase type 2 (Q08462 whole entry): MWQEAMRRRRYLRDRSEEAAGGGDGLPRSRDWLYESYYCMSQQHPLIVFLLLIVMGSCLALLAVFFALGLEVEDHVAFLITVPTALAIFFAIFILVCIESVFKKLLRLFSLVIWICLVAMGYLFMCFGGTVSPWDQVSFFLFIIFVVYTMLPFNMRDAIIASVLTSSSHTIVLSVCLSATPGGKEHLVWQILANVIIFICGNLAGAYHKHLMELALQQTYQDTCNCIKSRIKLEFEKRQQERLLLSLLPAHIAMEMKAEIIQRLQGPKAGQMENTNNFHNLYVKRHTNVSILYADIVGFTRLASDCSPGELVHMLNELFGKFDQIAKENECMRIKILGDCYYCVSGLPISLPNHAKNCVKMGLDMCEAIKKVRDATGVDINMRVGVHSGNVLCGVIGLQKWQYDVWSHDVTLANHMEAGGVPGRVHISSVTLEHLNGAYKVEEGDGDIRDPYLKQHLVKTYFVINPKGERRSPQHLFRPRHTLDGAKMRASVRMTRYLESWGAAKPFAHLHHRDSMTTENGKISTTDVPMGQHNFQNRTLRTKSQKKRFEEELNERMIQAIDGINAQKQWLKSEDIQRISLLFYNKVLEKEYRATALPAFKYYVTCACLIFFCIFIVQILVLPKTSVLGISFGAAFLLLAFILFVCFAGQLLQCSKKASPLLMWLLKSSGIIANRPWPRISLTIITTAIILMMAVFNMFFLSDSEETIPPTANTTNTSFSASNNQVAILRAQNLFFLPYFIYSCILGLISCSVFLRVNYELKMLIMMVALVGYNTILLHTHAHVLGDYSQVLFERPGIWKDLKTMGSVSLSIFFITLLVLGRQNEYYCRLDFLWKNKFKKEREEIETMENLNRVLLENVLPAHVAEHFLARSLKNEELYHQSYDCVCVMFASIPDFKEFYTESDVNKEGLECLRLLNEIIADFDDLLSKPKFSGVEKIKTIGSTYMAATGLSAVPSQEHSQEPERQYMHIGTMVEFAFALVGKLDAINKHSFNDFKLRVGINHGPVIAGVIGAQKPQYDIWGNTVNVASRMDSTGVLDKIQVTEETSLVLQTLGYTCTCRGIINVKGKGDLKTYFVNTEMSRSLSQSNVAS

CCRF-CEM = assay: Cytotoxicity against human CCRF-CEM cells by CellTiter-Glo 2.0 assay; assay type: functional, cell-based
[1] = Inhibition of Bordetella pertussis Adenylate cyclase toxin in mouse J774.A1 cells preincubated for 5 hrs followed by ACT addition and measured after 30 mins by CatchPointcAMP immunoassay method; assay type: cell-based
HL-60 = assay: Cytotoxicity against human HL-60 cells by CellTiter-Glo 2.0 assay; assay type: functional, cell-based
D(1A) dopamine receptor = D(1A) dopamine receptor (Homo sapiens, UniProt P21728); assay: Inhibition of human D1 receptor expressed in HEK293 cells assessed as cyclic AMP accumulation incubated for 1 hr in presence of dopamine by HTR-FRET assay; assay type: functional, cell-based
Chain of D(1A) dopamine receptor (P21728 whole entry): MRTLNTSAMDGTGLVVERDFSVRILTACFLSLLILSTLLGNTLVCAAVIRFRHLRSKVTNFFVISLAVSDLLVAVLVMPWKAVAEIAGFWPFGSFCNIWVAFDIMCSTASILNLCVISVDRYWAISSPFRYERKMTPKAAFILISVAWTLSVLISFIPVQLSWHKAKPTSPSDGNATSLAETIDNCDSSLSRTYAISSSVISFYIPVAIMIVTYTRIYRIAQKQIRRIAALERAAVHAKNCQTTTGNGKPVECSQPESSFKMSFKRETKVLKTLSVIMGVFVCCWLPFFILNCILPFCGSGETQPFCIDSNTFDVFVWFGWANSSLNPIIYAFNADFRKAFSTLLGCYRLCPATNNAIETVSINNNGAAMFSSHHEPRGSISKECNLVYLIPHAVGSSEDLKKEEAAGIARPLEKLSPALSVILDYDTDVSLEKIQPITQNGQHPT

HEK293 = assay: Cytotoxicity against AC1 expressed HEK293 cells by CellTiter-Glo 2.0 assay relative to control; assay type: toxicity, cell-based; design: concentration or dose not given beside the values; conditions: human
[2] = Cytotoxicity against mouse J774.A1 cells assessed as cell viability at 10 uM incubated for 5 hrs by Cell Titer-Glo Luminescent Cell Viability assay relative to control; assay type: toxicity, cell-based; conditions: read-out: Activity
HepG2 = assay: Cytotoxicity against human HepG2 cells by CellTiter-Glo 2.0 assay; assay type: functional, cell-based

## CC(C)OC(=O)[C@H](Cc1ccccc1)NP(=O)(COCCn1cc(-c2cccc(-c3noc(=O)[nH]3)c2)c2c(N)ncnc21)N[C@@H](Cc1ccccc1)C(=O)OC(C)C
HeLa S3
  IC50: > 10 µM
NHDF
  IC50: > 10 µM
Adenylate cyclase type 2
  IC50: 4.45 µM
CCRF-CEM
  IC50: > 10 µM
[1]
  IC50: > 10 µM
HL-60
  IC50: 10 µM
D(1A) dopamine receptor
  IC50: > 10 µM
HEK293
  Activity: 89%
[2]
  viability at 5 h, 10 µM: 114%
HepG2
  IC50: > 10 µM
